In the supplement of paper PMC7840683:

Test system: HepaRG
Assay: LDH release cytotoxicity, % of total lysis control; higher = more cytotoxic
Settings: 48 h
Method in brief: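 Single-lot HepaRG cells on collagen I-coated 96-well plates were exposed for 48 h in duplicate, in serum-free induction medium with 0.5% DMSO, to eight-point half-log series (test chemicals top 100 µM). Total lysis wells received 0.1% Triton X, and LDH leakage into 50 µL spent medium was read as resorufin fluorescence (CytoTox-ONE, Tecan Safire). Percent cytotoxicity was normalized to on-plate vehicle and total lysis controls and averaged over the duplicates.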

COC(=O)c1ccccc1C(=O)O [Monomethyl phthalate]
Settings	LDH release cytotoxicity [%]
0.031623 µM	-0.688
0.1 µM	-1.99
0.316228 µM	-2.92
1 µM	-2.55
3.16228 µM	-1.73
10 µM	-1.97
31.6228 µM	-0.563
100 µM	0.422

c1ccc2c(c1)-c1cccc3cccc-2c13 [Fluoranthene]
Settings	LDH release cytotoxicity [%]
0.03162 µM	-1.36
0.1 µM	-0.258
0.3162278 µM	-0.857
1 µM	-0.0961
3.16228 µM	-0.593
10 µM	-0.226
31.6228 µM	-0.969
100 µM	-2.77

CC(CO)OC(C)CO.CC(O)COCC(C)O (centres undefined) [Dipropylene glycol]
Settings	LDH release cytotoxicity [%]
0.03162 µM	-0.933
0.1 µM	-1.33
0.3162278 µM	-1.72
1 µM	-2.46
3.16228 µM	-1.81
10 µM	-1.07
31.6228 µM	-0.766
100 µM	1.27

COc1ccc(C(=O)Nc2nc3ccccc3c(NCc3ccccc3)c2C#N)cc1
Settings	LDH release cytotoxicity [%]
0.03162 µM	-1.06
0.1 µM	-0.452
0.3162278 µM	-0.037
1 µM	0.715
3.16228 µM	2.34
10 µM	2.97
31.6228 µM	4.87
100 µM	8.05

CC(=O)Nc1ccc(O)cc1 [Acetaminophen]
Settings	LDH release cytotoxicity [%]
0.03162 µM	-3.14
0.1 µM	-3.633
0.3162278 µM	-2.81
1 µM	-3.06
3.16228 µM	-3.13
10 µM	-3.2
31.6228 µM	-2.512
100 µM	-1.82

Cc1oc2c(NC(=O)c3c(Cl)cccc3Cl)cccc2c1C(C)(C)O
Settings	LDH release cytotoxicity [%]
0.03162 µM	-1.37
0.1 µM	-0.99
0.3162278 µM	-1.56
1 µM	-1.94
3.16228 µM	-2.03
10 µM	-0.5
31.6228 µM	13.1
100 µM	33.7

CCCCSP(=O)(SCCCC)SCCCC [Tribufos]
Settings	LDH release cytotoxicity [%]
0.03162 µM	-1.39
0.1 µM	-0.774
0.3162278 µM	-1.31
1 µM	-1.25
3.16228 µM	-0.815
10 µM	-0.0795
31.6228 µM	-0.648
100 µM	0.564

CCCCCCC(CCCCCCCCCCC(=O)OCC(COC(C)=O)OC(C)=O)OC(C)=O (centres undefined) [Grinstad Soft-N-Safe]
Settings	LDH release cytotoxicity [%]
0.015811 µM	-1.88
0.05 µM	-1.59
0.158114 µM	-1.52
0.5 µM	-1.93
1.58114 µM	-2.07
5 µM	-1.64
15.8114 µM	-0.943
50 µM	1.04

CC(=O)SC(C(=O)NC1Cc2ccccc2C2CCCC(C(=O)O)N2C1=O)C(C)C (centres undefined) [Ilepatril]
Settings	LDH release cytotoxicity [%]
0.03162 µM	-3.01
0.1 µM	-3.51
0.3162278 µM	-2.73
1 µM	-2.08
3.16228 µM	-2.73
10 µM	-1.99
31.6228 µM	-1.05
100 µM	-0.123

O=C(N[C@H](c1ccccc1)[C@@H]1CN2CCC1CC2)c1c(Cl)ccc(C(F)(F)F)c1Cl
Settings	LDH release cytotoxicity [%]
0.0292511 µM	-0.907
0.0925 µM	-0.886
0.292511 µM	-1.02
0.925 µM	-1.22
2.9251068 µM	-0.0305
9.25 µM	1.38
29.251068 µM	16.1
92.5 µM	82.5

Oc1ccccc1 [Phenol]
Settings	LDH release cytotoxicity [%]
0.03162 µM	-1.29
0.1 µM	-1.84
0.3162278 µM	-1.69
1 µM	-1.85
3.16228 µM	-1.67
10 µM	-1.64
31.6228 µM	-1.18
100 µM	0.202

CCCCCCCCCCCCc1ccccc1 [Dodecylbenzene]
Settings	LDH release cytotoxicity [%]
0.03162 µM	-2.1
0.1 µM	-1.71
0.3162278 µM	-1.86
1 µM	-2.59
3.16228 µM	-2.08
10 µM	-0.672
31.6228 µM	-1.17
100 µM	1.25

COC=C(C(=O)OC)c1ccccc1COc1cccc(C(F)(F)F)n1 [Picoxystrobin]
Settings	LDH release cytotoxicity [%]
0.03162 µM	-4.13
0.1 µM	-3.11
0.3162278 µM	-4.04
1 µM	-4.28
3.16228 µM	-5.14
10 µM	20
31.6228 µM	37
100 µM	60

CC12CCC3c4ccc(O)cc4CC(CCCCCCCCCS(=O)CCCC(F)(F)C(F)(F)F)C3C1CCC2O (centres undefined) [Fulvestrant]
Settings	LDH release cytotoxicity [%]
0.03162 µM	-1.87
0.1 µM	-1.62
0.3162278 µM	-0.633
1 µM	-1.01
3.16228 µM	-1.1
10 µM	-0.0401
31.6228 µM	-3.17
100 µM	3.92

CCOP(=S)(OCC)SCSP(=S)(OCC)OCC [Ethion]
Settings	LDH release cytotoxicity [%]
0.03162 µM	-0.671
0.1 µM	-1.31
0.3162278 µM	-1.54
1 µM	-1.6
3.16228 µM	-1.07
10 µM	-1.06
31.6228 µM	-2.53
100 µM	-0.532

c1ccc2c(c1)Nc1ccccc1S2 [Phenothiazine]
Settings	LDH release cytotoxicity [%]
0.03162 µM	-1.44
0.1 µM	-0.242
0.3162278 µM	-1.08
1 µM	-2.16
3.16228 µM	-1.87
10 µM	-1.1
31.6228 µM	0.496
100 µM	3.43

CNC(=O)C=C(C)OP(=O)(OC)OC [Monocrotophos]
Settings	LDH release cytotoxicity [%]
0.03162 µM	-1.04
0.1 µM	-1.87
0.3162278 µM	-1.93
1 µM	-1.17
3.16228 µM	-1.61
10 µM	-1.39
31.6228 µM	-0.305
100 µM	-0.571

O=C(Oc1ccccc1)c1cccc(C(=O)Oc2ccccc2)c1 [Diphenyl isophthalate]
Settings	LDH release cytotoxicity [%]
0.03162 µM	-0.961
0.1 µM	-0.451
0.3162278 µM	-0.0836
1 µM	-0.13
3.16228 µM	-0.548
10 µM	-0.00904
31.6228 µM	0.842
100 µM	2.16

Cn1cc(-c2ccccc2)c(=O)c(-c2cccc(C(F)(F)F)c2)c1 [1-Methyl-3-phenyl-5-(3-(trifluoromethyl)phenyl)-4-pyridone]
Settings	LDH release cytotoxicity [%]
0.02893 µM	-1.78
0.0915 µM	-1.31
0.289348 µM	-1.94
0.915 µM	-2.56
2.89348 µM	-2.08
9.15 µM	-2.29
28.9348 µM	-1.81
91.5 µM	20.3

C=CC(N)=O [Acrylamide]
Settings	LDH release cytotoxicity [%]
0.03162 µM	-0.83
0.1 µM	-1.21
0.3162278 µM	-1.5
1 µM	-1.596
3.16228 µM	-1.78
10 µM	-0.843
31.6228 µM	-1.75
100 µM	-0.493

NC(Cc1cc(I)c(Oc2ccc(O)c(I)c2)c(I)c1)C(=O)O (centres undefined) [3,5,3'-Triiodothyronine]
Settings	LDH release cytotoxicity [%]
0.031623 µM	-1.22
0.1 µM	-3.18
0.316228 µM	-4.73
1 µM	-4.06
3.16228 µM	-3.84
10 µM	-3.581
31.6228 µM	-2.69
100 µM	0.489

[As]#[In] [Indium arsenide]
Settings	LDH release cytotoxicity [%]
0.03162 µM	0.449
0.1 µM	-0.971
0.3162278 µM	0.268
1 µM	-0.269
3.16228 µM	0.376
10 µM	0.749
31.6228 µM	0.141
100 µM	1.11

CCN(CC)C(=O)c1cccc(C)c1 [DEET]
Settings	LDH release cytotoxicity [%]
0.03305 µM	-1.66
0.1045 µM	-2.06
0.330458 µM	-2.58
1.045 µM	-2.44
3.30458 µM	-2.59
10.45 µM	-2.53
33.0458 µM	-1.85
104.5 µM	-1.16

CCCC(=O)OCCC(C)C [Isopentyl butyrate]
Settings	LDH release cytotoxicity [%]
0.03162 µM	0.497
0.1 µM	-0.72
0.3162278 µM	-0.446
1 µM	-0.671
3.16228 µM	0.184
10 µM	0.168
31.6228 µM	0.438
100 µM	1.65

CC12CCC3c4ccc(O)cc4CCC3C1CCC2=O (centres undefined) [Estrone]
Settings	LDH release cytotoxicity [%]
0.03162 µM	-1.21
0.1 µM	-1.61
0.3162278 µM	-1.15
1 µM	-2.36
3.16228 µM	-2.37
10 µM	-2.52
31.6228 µM	-1.9
100 µM	0.127

COC(=O)N(OC)c1ccccc1COc1ccn(-c2ccc(Cl)cc2)n1 [Pyraclostrobin]
Settings	LDH release cytotoxicity [%]
0.03162 µM	-1.44
0.1 µM	-1.43
0.3162278 µM	-1.17
1 µM	-2.24
3.16228 µM	-1.81
10 µM	-0.283
31.6228 µM	6.12
100 µM	56.9

Nc1nc2nc[nH]c2c(=S)[nH]1 [6-Thioguanine]
Settings	LDH release cytotoxicity [%]
0.031623 µM	1.04
0.1 µM	-2.6
0.316228 µM	-2.87
1 µM	-2.88
3.16228 µM	-2.5
10 µM	-2.64
31.6228 µM	-1.86
100 µM	-0.0388

CC(=O)O [Acetic acid]
Settings	LDH release cytotoxicity [%]
0.0317809 µM	-1.92
0.1005 µM	-2.2
0.317809 µM	-1.18
1.005 µM	-1.23
3.17809 µM	-0.0523
10.05 µM	-0.22
31.7809 µM	-0.0673
100.5 µM	1.25

CCCCCCOC(=O)c1ccccc1C(=O)OCCCCCC [Dihexyl phthalate]
Settings	LDH release cytotoxicity [%]
0.03162 µM	-0.113
0.1 µM	-2.29
0.3162278 µM	-1.07
1 µM	-1.78
3.16228 µM	-2.06
10 µM	4.57
31.6228 µM	25.3
100 µM	81

CCOCCOC(C)=O [Ethylene glycol monoethyl ether acetate]
Settings	LDH release cytotoxicity [%]
0.03162 µM	-1.19
0.1 µM	-0.486
0.3162278 µM	0.156
1 µM	0.488
3.16228 µM	0.0494
10 µM	0.917
31.6228 µM	0.221
100 µM	1.51

C#CCN1C(=O)COc2cc(F)c(N3C(=O)C4=C(CCCC4)C3=O)cc21 [Flumioxazin]
Settings	LDH release cytotoxicity [%]
0.03162 µM	-0.355
0.1 µM	-0.895
0.3162278 µM	-0.721
1 µM	-1.33
3.16228 µM	-0.964
10 µM	-1.1
31.6228 µM	-0.837
100 µM	0.763

Cc1ccc(N)cc1N [2,4-Diaminotoluene]
Settings	LDH release cytotoxicity [%]
0.031623 µM	-1.84
0.1 µM	-0.98
0.316228 µM	-1.49
1 µM	-2.17
3.16228 µM	-1.86
10 µM	-1.56
31.6228 µM	-1.29
100 µM	-0.394

Nc1ccc(Cl)cc1N [4-Chloro-1,2-diaminobenzene]
Settings	LDH release cytotoxicity [%]
0.03162 µM	-0.924
0.1 µM	-0.99
0.3162278 µM	-1.38
1 µM	-1.19
3.16228 µM	-0.451
10 µM	-0.557
31.6228 µM	-0.208
100 µM	-0.194

O=NO [Sodium nitrite]
Settings	LDH release cytotoxicity [%]
0.03162 µM	-3.61
0.1 µM	0.52
0.3162278 µM	-0.867
1 µM	-2.02
3.16228 µM	-1.06
10 µM	-0.549
31.6228 µM	-1.15
100 µM	0.684

Nc1ccc(Cc2ccc(N)cc2)cc1 [4,4'-Diaminobiphenyl methane]
Settings	LDH release cytotoxicity [%]
0.03162 µM	-0.659
0.1 µM	-2.27
0.3162278 µM	-2.24
1 µM	-2.78
3.16228 µM	-2.52
10 µM	-2.46
31.6228 µM	-1.8
100 µM	0.228

CCCCOC(=O)C(C)Oc1ccc(Oc2ccc(C#N)cc2F)cc1 (centres undefined) [Cyhalofop-butyl]
Settings	LDH release cytotoxicity [%]
0.0314647 µM	-1.16
0.0995 µM	-1.07
0.3146466 µM	-0.775
0.995 µM	-1.29
3.14647 µM	-0.485
9.95 µM	0.552
31.4647 µM	-0.564
99.5 µM	0.894

CNCc1cc(F)ccc1Oc1ccc(Cl)c(Cl)c1
Settings	LDH release cytotoxicity [%]
0.03162 µM	-11
0.1 µM	-10.04
0.3162278 µM	-10.6
1 µM	-10.4
3.16228 µM	-11.2
10 µM	-10
31.6228 µM	-8.03
100 µM	75.6

CN1COCN(Cc2cnc(Cl)s2)C1=N[N+](=O)[O-] [Thiamethoxam]
Settings	LDH release cytotoxicity [%]
0.03162 µM	-0.296
0.1 µM	-1.13
0.3162278 µM	-0.0609
1 µM	-1.83
3.16228 µM	-1.49
10 µM	0.119
31.6228 µM	-1.01
100 µM	0.102
